Measurements published in patent US12714707B2, “Combination cancer therapy using CHK inhibitor” (SHANGHAI HUAYU BIOTECHNOLOGY CO., LTD., priority 2020, dated 2026).

Legend:
Assay type in all cases: cell-based
[1] = test system: MCF7F cells (fulvestrant-resistant); experiment: MTT cell viability / cell death rate, MCF7F cells (Example 1); conditions: 48 hours; for Cell Death Rate/% mean: mean of triplicate; for Cell Death Rate/% 1: replicate 1; for Cell Death Rate/% 2: replicate 2; for Cell Death Rate/% 3: replicate 3
Experimental: MCF7F cells (fulvestrant-resistant) were maintained at 37° C. in 5% CO2 in RPMI 1640 medium (10-040-CV, Coming cellgro) supplemented with 10% FBS (10270-106, GIBCO), 1% penicillin and 1% streptomycin, and used before the 10th subculture, wherein these cells were in house prepared by culturing MCF7 cells (TCHu 74, National Collection of Authenticated Cell Cultures) in medium containing 1 μM fulvestrant for approximately 18 months (Hong Liu et al., Cooperative effect of gefitinib and fumitremorgin c on cell growth and chemosensitivity in estrogen receptor alpha negative fulvestrant-resistant MCF-7 cells. Int J Oncol. 2006. 29(5):1237-1246).
(§1) Briefly, the MCF7F cells were cultured at 37° C. in 5% CO2 in RPMI 1640 medium supplemented with i) 10% FBS, ii) 1% penicillin and 1% streptomycin, and iii) AZD2281 (final concentration at 800 nM), ABT888 (final concentration at 800 nM), Compound 605B (final concentration at 25 nM), 605B+AZD2281 (final concentration at 25 nM and 800 nM), 605B+ABT888 (final concentration at 25 nM and 800 nM), or PBS (vehicle), for 48 hours. Then, cell viability was determined by a MTT assay. The test was done in triplicate.
(§2) Cell death rate was calculated by the following formula. Cell death rate=[1−(ODtest[…])]×100%
(§3) Cell death rates were analyzed using student's t-test, and group differences were deemed statistically significant when the p-value was lower than 0.05. Zheng-Jun Jin's Q value was calculated using the formula Q=EA+B/(EA+EB−EA×EB) to assess the combined effect of Compound 605B and the PARP inhibitor, wherein EA+B, EA, and EB referred to the cell death rates caused by the combined treatment, 605B treatment and PARP inhibitor treatment, respectively. A Q value higher than 1.15 meant a synergistic […] effect.

MCF7 [2] = experiment: MTT cell death rate, MCF7 cells, 605B with AZD2281 (Example 2); conditions: 48 hours; for Cell Death Rate/% 1: replicate 1; for Cell Death Rate/% 2: replicate 2; for Cell Death Rate/% 3: replicate 3
Experimental: as §2, §3
(§4) The combined use of Compound 605 and AZD2281 was further tested in other breast cancer cell lines, including BT474 (TCHu 143, National collection of Authenticated Cell Cultures), MCF7 (TCHu 74, National collection of Authenticated Cell Cultures), and MMTV-HER2 (a gift from Dr. Liguang-L, Shanghai Institute of Materia Medica, Chinese Academy of Sciences).
as §1, with “these” for “the MCF7F”, “and” for “and 1%”, “AZD2281” for “AZD2281 (final concentration at 800 nM), ABT888”, “nM),” for “nM), 605B+ABT888 (final concentration at 25 nM and 800 nM),”, “PBS,” for “PBS (vehicle),”

MMTV-HER2 [3] = experiment: MTT cell death rate, MMTV-HER2 cells, 605B with AZD2281 (Example 2); conditions: 48 hours; for Cell Death Rate/% 1: replicate 1; for Cell Death Rate/% 2: replicate 2; for Cell Death Rate/% 3: replicate 3
Experimental: as §2, §3, §4
as §1, with “these” for “the MCF7F”, “and” for “and 1%”, “AZD2281” for “AZD2281 (final concentration at 800 nM), ABT888”, “nM),” for “nM), 605B+ABT888 (final concentration at 25 nM and 800 nM),”, “PBS,” for “PBS (vehicle),”

BT474 [4] = experiment: MTT cell death rate, BT474 cells, 605B with AZD2281 (Example 2); conditions: 48 hours; for Cell Death Rate/% 1: replicate 1; for Cell Death Rate/% 2: replicate 2; for Cell Death Rate/% 3: replicate 3
Experimental: as §2, §3, §4
as §1, with “these” for “the MCF7F”, “and” for “and 1%”, “AZD2281” for “AZD2281 (final concentration at 800 nM), ABT888”, “nM),” for “nM), 605B+ABT888 (final concentration at 25 nM and 800 nM),”, “PBS,” for “PBS (vehicle),”

BT474 [5] = experiment: MTT cell death rate, BT474 cells, 605B with Rucaparib (Example 3); conditions: 48 hours; for Cell Death Rate/% 1: replicate 1; for Cell Death Rate/% 2: replicate 2; for Cell Death Rate/% 3: replicate 3
Experimental: as §2, §3
(§5) Compound 605B was tested with another PARP inhibitor, AG014699 (Rucaparib), for the inhibitory effects on breast tumor cell lines, including BT474, MCF7, and MMTV-HER2.
(§6) Briefly, these cells were cultured at 37° C. in 5% CO2 in RPMI 1640 medium supplemented with i) 10% FBS, ii) 1% penicillin and 1% streptomycin, and iii) AZD2281 (final concentration at 800 nM), Compound 605B (final concentration at 25 nM), 605B+AZD2281 (final concentration at 25 nM and 800 nM), or PBS, for 48 hours. Then, cell viability was determined by the MTT assay. The test was done in triplicate.

MCF7 [6] = experiment: MTT cell death rate, MCF7 cells, 605B with Rucaparib (Example 3); conditions: 48 hours; for Cell Death Rate/% 1: replicate 1; for Cell Death Rate/% 2: replicate 2; for Cell Death Rate/% 3: replicate 3
Experimental: as §2, §3, §5, §6

MMTV-HER2 [7] = experiment: MTT cell death rate, MMTV-HER2 cells, 605B with Rucaparib (Example 3); conditions: 48 hours; for Cell Death Rate/% 1: replicate 1; for Cell Death Rate/% 2: replicate 2; for Cell Death Rate/% 3: replicate 3
Experimental: as §2, §3, §5, §6

SMILES: C[C@]1(c2nc3c(C(N)=O)cccc3[nH]2)CCCN1 [ABT888, Veliparib]
- Cell Death Rate/% mean ([1]; final concentration 800 nM): 4.63%
- Cell Death Rate/% 1 ([1]; final concentration 800 nM): 4.69%
- Cell Death Rate/% 2 ([1]; final concentration 800 nM): 4.28%
- Cell Death Rate/% 3 ([1]; final concentration 800 nM): 4.93%

SMILES: O=C(c1cc(Cc2n[nH]c(=O)c3ccccc23)ccc1F)N1CCN(C(=O)C2CC2)CC1 [AZD2281, Olaparib]
- Cell Death Rate/% mean (MCF7 [2]; final concentration 800 nM): 5.34%
- Cell Death Rate/% 1 (MCF7 [2]; final concentration 800 nM): 5.34%
- Cell Death Rate/% 2 (MCF7 [2]; final concentration 800 nM): 5.39%
- Cell Death Rate/% 3 (MCF7 [2]; final concentration 800 nM): 5.66%
- Cell Death Rate/% mean (MMTV-HER2 [3]; final concentration 800 nM): 8.28%
- Cell Death Rate/% 1 (MMTV-HER2 [3]; final concentration 800 nM): 8.34%
- Cell Death Rate/% 2 (MMTV-HER2 [3]; final concentration 800 nM): 8.46%
- Cell Death Rate/% 3 (MMTV-HER2 [3]; final concentration 800 nM): 8.05%
- Cell Death Rate/% mean (BT474 [4]; final concentration 800 nM): 5.28%
- Cell Death Rate/% 1 (BT474 [4]; final concentration 800 nM): 5.47%
- Cell Death Rate/% 2 (BT474 [4]; final concentration 800 nM): 5.1%
- Cell Death Rate/% 3 (BT474 [4]; final concentration 800 nM): 5.27%
- Cell Death Rate/% mean ([1]; final concentration 800 nM): 5.55%
- Cell Death Rate/% 1 ([1]; final concentration 800 nM): 5.86%
- Cell Death Rate/% 2 ([1]; final concentration 800 nM): 5.42%
- Cell Death Rate/% 3 ([1]; final concentration 800 nM): 5.37%

SMILES: NC(=O)c1nnc(N[C@H]2CCCNC2)c2cc(-c3cccc(F)c3)sc12 [Compound 605B, 2-(3-fluorophenyl)-4-(3-piperidineamino)-thieno[2,3-d]pyridazine-7-carboxylic acid amide]
- Cell Death Rate/% mean (MCF7 [2]; final concentration 25 nM): 6.51%
- Cell Death Rate/% 1 (MCF7 [2]; final concentration 25 nM): 6.51%
- Cell Death Rate/% 2 (MCF7 [2]; final concentration 25 nM): 6.38%
- Cell Death Rate/% 3 (MCF7 [2]; final concentration 25 nM): 6.72%
- Cell Death Rate/% mean (BT474 [5]; final concentration 25 nM): 8.47%
- Cell Death Rate/% 1 (BT474 [5]; final concentration 25 nM): 8.49%
- Cell Death Rate/% 2 (BT474 [5]; final concentration 25 nM): 8.24%
- Cell Death Rate/% 3 (BT474 [5]; final concentration 25 nM): 8.67%
- Cell Death Rate/% mean (MMTV-HER2 [3]; final concentration 25 nM): 8.50%
- Cell Death Rate/% 1 (MMTV-HER2 [3]; final concentration 25 nM): 8.69%
- Cell Death Rate/% 2 (MMTV-HER2 [3]; final concentration 25 nM): 8.33%
- Cell Death Rate/% 3 (MMTV-HER2 [3]; final concentration 25 nM): 8.47%
- Cell Death Rate/% mean (BT474 [4]; final concentration 25 nM): 7.67%
- Cell Death Rate/% 1 (BT474 [4]; final concentration 25 nM): 7.72%
- Cell Death Rate/% 2 (BT474 [4]; final concentration 25 nM): 7.45%
- Cell Death Rate/% 3 (BT474 [4]; final concentration 25 nM): 7.83%
- inhibitory effects on cells / cell death rates (in words) [1]: little inhibitory effects
- Cell Death Rate/% mean ([1]; final concentration 25 nM): 4.97%
- Cell Death Rate/% 1 ([1]; final concentration 25 nM): 5.03%
- Cell Death Rate/% 2 ([1]; final concentration 25 nM): 5.22%
- Cell Death Rate/% 3 ([1]; final concentration 25 nM): 4.67%
- Cell Death Rate/% mean (MCF7 [6]; final concentration 25 nM): 8.41%
- Cell Death Rate/% 1 (MCF7 [6]; final concentration 25 nM): 8.5%
- Cell Death Rate/% 2 (MCF7 [6]; final concentration 25 nM): 8.39%
- Cell Death Rate/% 3 (MCF7 [6]; final concentration 25 nM): 8.33%
- Cell Death Rate/% mean (MMTV-HER2 [7]; final concentration 25 nM): 9.11%
- Cell Death Rate/% 1 (MMTV-HER2 [7]; final concentration 25 nM): 9.13%
- Cell Death Rate/% 2 (MMTV-HER2 [7]; final concentration 25 nM): 8.90%
- Cell Death Rate/% 3 (MMTV-HER2 [7]; final concentration 25 nM): 9.29%

SMILES: CNCc1ccc(-c2[nH]c3cc(F)cc4c3c2CCNC4=O)cc1 [Rucaparib]
- Cell Death Rate/% mean (BT474 [5]; final concentration 800 nM): 7.60%
- Cell Death Rate/% 1 (BT474 [5]; final concentration 800 nM): 7.63%
- Cell Death Rate/% 2 (BT474 [5]; final concentration 800 nM): 7.77%
- Cell Death Rate/% 3 (BT474 [5]; final concentration 800 nM): 7.39%
- Cell Death Rate/% mean (MCF7 [6]; final concentration 800 nM): 6.66%
- Cell Death Rate/% 1 (MCF7 [6]; final concentration 800 nM): 6.88%
- Cell Death Rate/% 2 (MCF7 [6]; final concentration 800 nM): 6.46%
- Cell Death Rate/% 3 (MCF7 [6]; final concentration 800 nM): 6.65%
- Cell Death Rate/% mean (MMTV-HER2 [7]; final concentration 800 nM): 7.50%
- Cell Death Rate/% 1 (MMTV-HER2 [7]; final concentration 800 nM): 7.54%
- Cell Death Rate/% 2 (MMTV-HER2 [7]; final concentration 800 nM): 7.68%
- Cell Death Rate/% 3 (MMTV-HER2 [7]; final concentration 800 nM): 7.29%
